The subject of assay [1] is Streptococcus sp. 'group A'. Kind of assay: growth inhibition of control SK(-) GAS strain, dose response, counter-screen for streptokinase expression inhibitor project, luminescence, kanamycin, BacTiterGlo, confirmation (AID 1900). The format is functional, organism-based. (In general: The purpose of a counterscreen is to sort out artefacts and off-target activity.)
Assay [2] addresses ATP-dependent molecular chaperone HSP82 (Candida albicans (strain WO-1) (Yeast), UniProt C4YTQ8). Kind of assay: loss of DOC-induced GRE-beta-galactosidase reporter signal, dose response, Hsp90 inhibitor project, S. cerevisiae, luminescence (AID 2400).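 Note: beta-galactosidase luminescence from glucocorticoid response element reporter as proxy for Hsp90 function; inhibitor potency where signal loss means Hsp90 inhibition.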 The format is functional, cell-based.
Assay [3] has as its target T1, Rac GTPase-activating protein 1 (Homo sapiens, UniProt Q9H0H5).
T1 sequence (Q9H0H5 whole entry): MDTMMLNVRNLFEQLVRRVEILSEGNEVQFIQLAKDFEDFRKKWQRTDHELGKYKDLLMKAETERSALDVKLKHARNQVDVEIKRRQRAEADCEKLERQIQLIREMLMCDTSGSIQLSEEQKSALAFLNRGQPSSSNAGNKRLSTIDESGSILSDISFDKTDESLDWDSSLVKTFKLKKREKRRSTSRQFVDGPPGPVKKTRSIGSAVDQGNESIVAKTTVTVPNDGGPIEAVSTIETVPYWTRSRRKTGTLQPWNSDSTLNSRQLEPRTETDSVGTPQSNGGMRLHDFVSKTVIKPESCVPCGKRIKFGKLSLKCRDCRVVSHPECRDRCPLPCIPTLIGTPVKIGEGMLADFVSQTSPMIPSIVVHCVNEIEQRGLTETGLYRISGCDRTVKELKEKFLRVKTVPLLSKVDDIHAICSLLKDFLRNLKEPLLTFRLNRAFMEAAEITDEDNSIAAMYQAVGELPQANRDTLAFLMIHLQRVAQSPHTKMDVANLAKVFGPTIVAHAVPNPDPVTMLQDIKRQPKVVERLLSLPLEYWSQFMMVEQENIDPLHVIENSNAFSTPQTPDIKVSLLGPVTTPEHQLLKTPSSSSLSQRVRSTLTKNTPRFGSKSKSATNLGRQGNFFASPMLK
Kind of assay: MgcRacGAP GTPase-activating activity inhibitors, confirmation, biochemical, ADP Hunter fluorescence, primary and confirmatory (AID 624330). The format is functional.

Assay [4] is described as follows: cytotoxicity toward NIH3T3 fibroblasts, dose response, counter-screen, cell-based, ATP luminescence, mouse fibroblasts (AID 2010).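 Note: cells exposed to compound for about 90 hours before reading.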 The format is functional.

Usually EC50 stands for the concentration giving half of the maximal effect. In general, IC50 refers to the concentration that gives 50% inhibition.

The source made the active and inactive calls. Cut-off read from the data, not from the text of the source, for most assays here: actives have a measured EC50 and inactives only a lower limit.

Chain of ATP-dependent molecular chaperone HSP82 (C4YTQ8 whole entry): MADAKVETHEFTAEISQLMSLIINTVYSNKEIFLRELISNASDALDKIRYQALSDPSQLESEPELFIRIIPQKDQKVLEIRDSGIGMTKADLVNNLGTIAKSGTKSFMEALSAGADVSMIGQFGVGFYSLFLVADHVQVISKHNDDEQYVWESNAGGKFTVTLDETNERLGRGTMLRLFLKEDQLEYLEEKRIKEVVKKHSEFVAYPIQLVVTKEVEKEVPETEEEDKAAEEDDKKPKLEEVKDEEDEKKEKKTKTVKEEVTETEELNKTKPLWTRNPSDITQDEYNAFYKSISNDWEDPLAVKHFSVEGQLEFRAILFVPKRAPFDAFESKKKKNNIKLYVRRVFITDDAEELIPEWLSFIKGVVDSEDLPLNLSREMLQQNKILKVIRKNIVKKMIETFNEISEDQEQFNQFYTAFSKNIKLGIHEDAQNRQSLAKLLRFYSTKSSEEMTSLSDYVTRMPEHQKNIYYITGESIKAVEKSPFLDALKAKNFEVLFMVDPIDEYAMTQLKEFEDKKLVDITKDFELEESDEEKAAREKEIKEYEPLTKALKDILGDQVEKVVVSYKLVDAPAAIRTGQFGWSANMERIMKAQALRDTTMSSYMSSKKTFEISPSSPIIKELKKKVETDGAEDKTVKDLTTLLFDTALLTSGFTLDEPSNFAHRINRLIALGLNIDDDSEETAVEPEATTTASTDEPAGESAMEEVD

As to `Cc1ccc(C)c(S(=O)(=O)N2CCN(Cc3ccc(O)c4ncccc34)CC2)c1`, the values for the EC50 in assay [1] and in assay [2] were 6.87 µM (active) and > 160 µM (inactive), respectively. Regarding `Oc1ccc(/C=N\Nc2cc(N3CCOCC3)nc(N3CCOCC3)n2)c(O)c1`, the IC50 in assay [3] is 57.1 µM (active). Turning to `COc1cc(NC(=O)Cn2ncc(Cl)c(Cl)c2=O)c(C)cc1[N+](=O)[O-]`, in assay [4], the EC50 is 3.17 µM (active).

The values are drawn from ChEMBL document CHEMBL1201862, “PubChem BioAssay data set” (2004).
